The assay deals with mouse peritoneal macrophages. The assay can be described thus: In vitro experiment using mouse peritoneal macrophages: suppression of foaming, cholesterol ester (CE) yield. It counts as cell-based. Conditions: for inhibitory effect on macrophages (rate of cholesterol ester synthesis), in words: mouse peritoneal macrophages, 5 μM.
The mark [1] stands for this setting: test compound 5 μM with liposomes, 16 hours, cholesterol ester yield relative to control without test compound = 100%, smaller value = more potent suppression.

Where two headings read alike, the source gives them in different places.

Take “1-(5-(benzimidazoyl-2-thio)pentyl)piperidine [Compound 1]”: the “CE yield (%)” value stood at 22%.
For the molecule “1-(5-benzimidazolyl-2-thio)pentyl-1,2,3,4-tetrahydro-quinoline [Compound 34]”, the “CE yield (%)” value is 21%.
For the molecule “2-(5-(4-morpholino))-5-chlorobenzimidazole [Compound 20]”, the “CE yield (%)” value under setting [1] was determined as 25%.
Same read-out and setting: under “2-(5-(4-morpholino))-5-methoxybenzimidazole [Compound 19]” stands 24%; under “2-(5-(4-morpholino))-5-methylbenzimidazole [Compound 9]”, 21%.
For “2-(6-(1-(4-cyano-4-phenyl)piperidino)heptyl)-1H-benzimidazole [Compound 57]”, the “CE yield (%)” value is recorded as 22%.
Still for that read-out and setting: with “2-(6-(1-(4-hydroxy-4-phenyl)piperidino)heptyl)-1H-benzimidazole [Compound 58]” the figure was 20%.
In the case of “4-(5-(benzimidazolyl-2-thio)pentyl)morpholine [Compound 2]”, the “CE yield (%)” value under setting [1] was 18%.
With `CCCn1c(SCCCCCN2CCOCC2)nc2ccccc21` [Compound 6, 4-(5-(1-propylbenzimidazolyl-2-thio)pentyl)morpholine], under setting [1], the “CE yield (%)” value stood at 27%.
On the same count and under the same terms, with `CCC(=O)n1c(SCCCCCN2CCOCC2)nc2ccccc21` [Compound 7, 4-(5-(1-propionylbenzimidazolyl-2-thio)pentyl)morpholine] the figure was 22%.
The same measure, in the same setting: with `O=C(CCCCSc1nc2ccccc2[nH]1)N1CCCc2ccccc21` [Compound 33, 1-(5-(4-benzimidazolyl-2-thio)valeryl)-1,2,3,4-tetrahydro-quinoline] the figure was 18%; with `c1ccc2[nH]c(SCCOCCN3CCOCC3)nc2c1` [Compound 50, 4-(2-(2-benzimidazoyl-2-thio)ethoxy)ethylmorpholine], 4.6%.
Turning to `N#CC1(c2ccccc2)CCN(CCCCCOc2nc3ccccc3[nH]2)CC1` [Compound 55, 1-(5-(benzimidazoyl-2-oxy)pentyl)-4-cyano-4-phenyl-piperidine], the “CE yield (%)” value amounted to 21%.
On to `CC(C)Oc1cccc(OC(C)C)c1NC(=O)CN1CCN(CCCSc2nc3ccccc3[nH]2)CC1` [Ref. 1, reference compound], for which the “inhibitory effect on macrophages (rate of cholesterol ester synthesis), in words” value (from here on “inhibitory effect on macrophages”) is given as “almost no inhibitory effect”. Moreover, the “CE yield (%)” value under setting [1] turned out to be 95%.
Consider `CC(C)c1cc(C(C)C)c(NC(=O)CN2CCN(CCSc3nc4ccccc4[nH]3)CC2)c(C(C)C)c1` [Ref. 2, reference compound], for which the “inhibitory effect on macrophages” value is on record as “almost no inhibitory effect”. In addition, the “CE yield (%)” value under setting [1] is given as 98%.
Take `CCCCCCN(CCCCCSc1nc2ccccc2[nH]1)C(=O)Nc1ccc(F)cc1F` [Ref. 3, reference compound]: the “inhibitory effect on macrophages” value is reported as “almost no inhibitory effect”. Under setting [1], the “CE yield (%)” value is 78%.
For `O=C(CCN1CCCCC1)CSc1nc2ccccc2[nH]1` [Ref. 4, reference compound], the “inhibitory effect on macrophages” value was “completely inactive”. Further, the “CE yield (%)” value under setting [1] came to 89%.
The like results for `COc1ccc2[nH]c(SCCN3CCNCC3)nc2c1` [Ref. 5, reference compound] were, in that order, “completely inactive” and 102%.

For the origin of these results see patent US6815455B1, “Benzimidazole compounds and drugs containing the same” (Fuji Photo Film Co., Ltd., priority 1999, dated 2004).
